The values below are quoted from earlier work in US6457474B1, “Method of treating chest pain” (priority 1997, dated 2002).

The conditions of data set [1]: after the tablet has dissolved under the tongue.

As to `O=[N+]([O-])OCC(CO[N+](=O)[O-])O[N+](=O)[O-]` [nitroglycerin], the “time for the angina attack to go away” value in data set [1] is listed as “approximately five”. In addition, the systemic bioavailability entry (after oral administration) is recorded as “rather low”. In addition, for the setting “high oral doses”, the plasma levels entry was “erratic”.
